{
  "source": "paper PMC11372264",
  "about": "“^61Cu-PSMA–Targeted PET for Prostate Cancer: From Radiotracer Development to First-in-Human Imaging” (Journal of Nuclear Medicine, 2024)",
  "key": {"[1]": {"test": "Lipophilicity: distribution coefficient in 1:1 1-octanol/phosphate-buffered saline at pH 7.4", "format": "physicochemical", "method": "(§1) The lipophilicity of [^61Cu]Cu-DOTAGA-PSMA-I&T and [^61Cu]Cu-NODAGA-PSMA-I&T was assessed by determining the distribution coefficient in a 1:1 mixture of 1-octanol–to–phosphate-buffered saline at pH 7.4, in comparison with all reference radiotracers. Inhibitory concentration of 50% (IC50) was assessed by competition binding on lymph node carcinoma of the prostate (LNCaP) using ((S)-1-carboxy-5-(4-(-^125I-iodo-benzamido)pentyl)carbamoyl)-L-glutamic acid as the reference radioligand. Cellular uptake and distribution were assessed in LNCaP cells at 5, 15, 30, 60, and 120 min after exposure to the radioligand at 37°C, either alone or in the presence of 10 µM 2-(phosphonomethyl)pentanedioic acid to distinguish between specific and nonspecific uptake."}, "[2]": {"test_system": "LNCaP cells", "test": "Cellular uptake and distribution (surface-bound, internalized) in LNCaP cells", "format": "cell-based", "conditions": "1 h, 37°C", "method": "as §1\nFIGURE 1. In vitro assessment in LNCaP cells after 1 h at 37°C. (A) Competition binding activity curves of ^natCu-DOTAGA-PSMA-I&T, ^natCu-NODAGA-PSMA-I&T, and ^natGa-PSMA-11 on LNCaP cells after 1 h of incubation on ice, using ((S)-1-carboxy-5-(4-(-^125I-iodo-benzamido)pentyl)carbamoyl)-L-glutamic acid ([^125I-BA]KuE) at concentration of 0.2 nM as reference radioligand. (B) Cellular uptake (surface-bound + internalized). Cell surface–bound and internalized fractions are indicated. Results represent mean ± SD of specific (total − nonspecific) uptake from minimum of 2 separate experiments, each in triplicate."}, "[3]": {"test_system": "patient with metastatic prostate cancer", "test": "First-in-human PET/CT imaging", "format": "in vivo", "conditions": "105 MBq/32 µg i.v., 3 h after tracer administration", "method": "[^61Cu]Cu-NODAGA-PSMA-I&T was produced at the Nuclear Medicine Department of the Klinikum Rechts der Isar (Technical University of Munich) for human use. It was applied according to §13.2b of the German pharmaceutical law, and the requirement to obtain consent for the retrospective data analysis was waived. The manufacture of the tracer was performed via an automated process through a GE Healthcare FASTlab 2 module. Details on the production and quality controls are described in the supplemental materials. A dose of 105 MBq/32 µg was administered intravenously to a patient with known metastatic prostate cancer before ^177Lu-labeled PSMA radiopharmaceutical therapy. The patient was coinjected with 10 mg of furosemide (Lasix; Sanofi-Aventis). Imaging was performed 3 h after tracer administration on a Biograph Vision PET/CT scanner (Siemens Healthineers). Images were obtained from the skull to mid-thigh and reconstructed into multiplanar PET, CT, and fused PET/CT images. CT was used for attenuation correction.\nFIGURE 4. Administration of [^61Cu]Cu-NODAGA-PSMA-I&T, in person with metastatic castration-resistant prostate cancer with disease progression, after abiraterone and docetaxel therapy before ^177Lu-labeled PSMA radiopharmaceutical therapy. Imaging was performed 3 h after tracer administration. […] Patient has also 1 kidney after left nephrectomy."}},
  "data": [
    {"smiles": "O=C([O-])CN1CCN(CC(=O)[O-])CCN(C(CCC(=O)N[C@H](Cc2ccc(O)c(I)c2)C(=O)N[C@H](Cc2ccccc2)C(=O)N[C@H](CCCCNC(=O)CCCCCCC(=O)NCCCC[C@H](NC(=O)N[C@@H](CCC(=O)O)C(=O)O)C(=O)O)C(=O)O)C(=O)O)CC1.[61Cu+2]", "note": "(stereo partly drawn) [[^61Cu]Cu-NODAGA-PSMA-I&T, NODAGA-(l-y)fk(sub-KuE)]", "values": [
      {"measurement": "logDpH7.4", "setting": "[1]", "result": "−2.95 ± 0.08"},
      {"measurement": "Cellular uptake (surface-bound + internalized)", "setting": "[2]; specific uptake", "result": "22.4% ± 3.3%"},
      {"measurement": "Internalized fraction", "setting": "[2]; % of applied activity", "result": "11.7 ± 1.6", "unit": "%"},
      {"measurement": "Surface-bound fraction", "setting": "[2]; % of applied activity", "result": "10.8 ± 1.8", "unit": "%"},
      {"measurement": "SUVmax, kidney (right)", "setting": "[3]", "result": 57.3},
      {"measurement": "SUVmax, liver", "setting": "[3]", "result": 6.5},
      {"measurement": "SUVmax, salivary gland (right parotid gland)", "setting": "[3]", "result": 20.5},
      {"measurement": "SUVmax, tumor lesion left liver lobe", "setting": "[3]", "result": 23.6},
      {"measurement": "SUVmax, tumor lesion right lower pubic bone", "setting": "[3]", "result": 154.2},
      {"measurement": "SUVmax, tumor lesion right scapula", "setting": "[3]", "result": 86.4},
      {"measurement": "SUVmax, tumor lesion sacral bone", "setting": "[3]", "result": 16.5},
      {"measurement": "SUVmean, kidney (right)", "setting": "[3]", "result": 37.9},
      {"measurement": "SUVmean, liver", "setting": "[3]", "result": 3.4},
      {"measurement": "SUVmean, salivary gland (right parotid gland)", "setting": "[3]", "result": 12.6},
      {"measurement": "SUVmean, tumor lesion left liver lobe", "setting": "[3]", "result": 11.7},
      {"measurement": "SUVmean, tumor lesion right lower pubic bone", "setting": "[3]", "result": 83.7},
      {"measurement": "SUVmean, tumor lesion right scapula", "setting": "[3]", "result": 55.3},
      {"measurement": "SUVmean, tumor lesion sacral bone", "setting": "[3]", "result": 9.9}
    ]}
  ]
}
